Measurements published in US10039729B2, “Use of kukoamine A and kukoamine B” (Tianjin Chase Sun Pharmaceutical Co., Ltd., priority 2010, dated 2018).

What was measured:
[1] = system: RAW264.7 cells; assay: Cell vitality of RAW264.7 cells (MTT assay); format: cell-based, murine; conditions: 24 h; for RAW264.7 cells vitality (OD550): 200 μg/ml, p>0.05
Experimental: (1) Influence on vitality of RAW264.7 cells: According to embodiment 7, for the purpose of experiment a medium group, KB group (25, 50, 100, 200, 400 and 800 μM), a LPS (100 ng/ml)+KB (0, 100, 200 and 400 μM) group and a CpG DNA (10 μg/ml)+KB (0, 100, 200 and 400 μM) group were established; MTT was dissolved with PBS to make 5 mg/ml solution and filtered, which served as stock solution and stored at −20° C. for further detection; RAW264.7 cells were adjusted to 1×10^6/ml in DMEM medium, added into 96-well plates (200 μl per well), and cultured at 37° C. in a 5% CO2 humidified incubator for 4 h; the specified concentration of LPS, CpG DNA and KB were separately loaded according to the grouping; cells were cultured at 37° C. in a 5% CO2 humidified incubator for 24 h, centrifuged at 1000 rpm/min for 5 min; the supernatant was sucked and discarded; each well was added with 180 μl cell culture medium and 20 μl MTT stock solution, then cultured at 37° C. in a 5% CO2 humidified incubator for 4 h, and centrifuged at 1000 rpm/min for 10 min; then the supernatant was sucked and discarded; each well was added with 150 μl DMSO, and shook for 10 min for the dissolution of the crystals; RAW264.7 cells vitality was expressed as absorbance values at 550 nm of each well, which were instantly assayed by ELIASA.

[2] = system: mice challenged by heat-killed Escherichia coli; assay: LPS and TNF-α levels in blood of mice challenged by heat-killed E. coli; format: in vivo, Kunming mice; conditions: for LPS level in mice blood / TNF-α level in mice blood: 40 mg/kg 10 min after heat-killed E. coli 1.1×10^10 CFU/Kg, various time points, p<0.05 or p<0.01 vs control
Experimental: 8.1 Methods: Supernatant of heat-killed E. coli was prepared according to 2.3.3 items of embodiment 2; absorbance values of the supernatant were assayed at 600 nm (OD600 value 1.0≈1.0×10^10 CFU/ml); a total of 84 Kunming mice, half male and half female, were divided into three groups randomly: heat-killed E. coli control group, KA (40 mg/kg) plus heat-killed E. coli group and KB (40 mg/kg) plus heat-killed E. coli group; each group has 28 mice; after animals were weighed, heat-killed E. coli control group was injected with heat-killed E. coli(1.1×10^10 CFU/Kg); the other two groups were respectively injected with KA or KB (40 mg/kg) at 10 min after injection of heat-killed E. coli(1.1×10^10 CFU/Kg); the total injection of each animal was 200 μl per 20 g body weight; orbital venous blood of mice was collected at time point of 0, 2, 4, 8, 12, 24, 48 and 72 h after injection; LPS level was assayed by kinetic turbidimetric limulus test, and TNF-α was assayed by ELISA.
28.1 Methods: Kunming mice were randomly divided into two groups, and there were 56 mice in each group; heat-killed E. coli was diluted to make 1.0×10^9 CFU/ml suspension, and KB was dissolved to 6 mg/ml with sterile saline; caudal vein injection was adopted; medium group was injected with heat-killed Escherichia coli (0.2 ml per 20 g body weight) and sterile saline (0.2 ml per 20 g body weight); KB treatment groups were injected with heat-killed E. coli suspension S (0.2 ml per 20 g body weight) and KB (0.2 ml per 20 g body weight). Orbital venous blood of mice in medium group and KB treatment group was collected at time point of 0, 4, 8, 12, 24, 48 and 72 h after injection, the specific methods are: mice were killed by cervical dislocation, and immersed in 75% ethanol for skin degerming; the eye of mouse was removed, and blood was collected into a 1.5 ml EP tube; 10 μl blood were added into 190 μl nonpyrogenic water; solution was kept standing for 5-10 min for neutral sedimentation, and centrifuged at 1000 rpm for 10 min; the supernatant was transferred into a new centrifuge tube and stored at −20° C. for further detection; the rest was keep standing until aggregation and serum precipitation, then centrifuged at 3000 rpm for 10 min; the supernatant was transferred into a new centrifuge tube and stored at −20° C. for further detection;
(1) Detection of LPS levels in plasma: 10 μl plasma sample was dissolved in 190 μl sterile saline and mixed. Detection of LPS levels was performed according to the operating procedure of EDS-99 Bacterial Endotoxin Detecting system. Result was expressed by means of mean±standard deviation.
(2) Detection of serum cytokine levels: Because of the small blood volume of mouse, serum was diluted 2 times for detection. Detection of the TNF-α concentration was performed according to the manufacturer's instructions of ELISA kit. Result was expressed by means of mean±standard deviation.

[3] = system: murine peritoneal macrophages; assay: Release of TNF-α and IL-6 in murine peritoneal macrophages induced by LPS and CpG DNA (ELISA); format: cell-based, KM mice; conditions: 50, 100 and 200 μM, TNF-α at 4 h, IL-6 at 12 h
Experimental: Separation and culture of murine peritoneal macrophages: KM mice were killed by cervical dislocation and immediately immersed in 75% ethanol for skin degerming; then abdominal skin was aseptically cut open; precooling DMEM cell culture medium was slowly injected in exposed peritoneum with a 5 ml syringe; murine abdomen was gently massaged for sufficient cell collection; subsequently, DMEM was withdrew, transferred into 10 ml centrifuge tube, centrifuged at 500 rpm for 5 min, resuspended in DMEM supplemented with 10% (v/v) NCS, transferred into cell culture bottle, and then cultured at 37° C. in a 5% CO2 humidified incubator for 2 h; culture medium was replaced with fresh culture medium to remove unattached cells; over 95% of the remained cells were murine peritoneal macrophages, which continued to be cultured and proliferated.
Loading and detection: According to the method in embodiment 6, KB and PMB were separately diluted in DMEM supplemented with 10% (v/v) NCS and transferred into culture medium of […] to achieved final concentrations of 50, 100 and 200 μM; RAW264.7 cells continued to be incubated; the supernatant was collected four hours later for TNF-α detection; the supernatant at were collected 12 hours later for IL-6 detection; the concentration of TNF-α and IL-6 of each group was detected according to the manufacturer's instructions of ELISA kit; result was expressed by means of mean±standard deviation.

[4] = Major organ pathological morphous of mice after KB injection; format: in vivo, Kunming mice; conditions: KB 60 mg/kg single dose; 24, 48 and 72 h
Experimental: 30.1 Methods: A total of 16 Kunming mice were randomly divided into four groups; each group has 4 mice, half male and half female; for the purpose of experiment a medium group and a KB (60 mg/kg) treatment group were established; mice in medium group were immediately killed by cervical dislocation, and KB treatment group were killed separately killed at 24, 48 and 72 h after injection; the cavitas thoracis and abdominal cavity of mice were cut open; organs such as heart, liver, lung, kidney and intestine were moved out, rinsed with sterile saline, plunged into 10% formaldehyde solution for fixing, dehydrated, embedded in paraffin, HE dyed and mounted; organ histopathological changes were observed under a light microscope.

Compound | RAW264.7 cells vitality (OD550) [1] | LPS level in mice blood [2] | TNF-α level in mice blood [2] | absorbance values (vitality of RAW264.7 cells) vs medium group ([1]; KB 25-800 μM, or KB 0-400 μM plus LPS 100 ng/ml or CpG DNA 10 μg/ml) | release of TNF-α and IL-6 induced by CpG DNA [3] | release of TNF-α and IL-6 induced by LPS [3] | LPS levels in mice plasma vs heat-killed E. coli control group ([2]; sublethal heat-killed E. coli, KB 6 mg/ml, 0.2 ml per 20 g, 4, 8, 12, 24 and 48 h, p<0.05 or p<0.01) | TNF-α levels in mice serum vs heat-killed E. coli control group ([2]; sublethal heat-killed E. coli, KB 6 mg/ml, 0.2 ml per 20 g, 4, 8, 12 and 24 h, p<0.01) | cardiac muscle histopathology [4] | changes in major organs of mice [4] | kidney histopathology [4] | liver histopathology [4] | lung histopathology [4]
O=C(CCc1ccc(O)c(O)c1)NCCCNCCCCNCCCNC(=O)CCc1ccc(O)c(O)c1 [KA, Kukoamine A] | no influence on RAW264.7 cells vitality | significantly decreased | significantly decreased |  |  |  |  |  |  |  |  |  | 
NCCCN(CCCCNCCCNC(=O)CCc1ccc(O)c(O)c1)C(=O)CCc1ccc(O)c(O)c1 [KB, Kukoamine B] | no influence on RAW264.7 cells vitality | significantly decreased | significantly decreased | no statistic difference on absorbance values | inhibit the release of TNF-α and IL-6 | inhibit the release of TNF-α and IL-6 | significantly lower | significantly lower | no cell necrosis and inflammatory cell infiltration | no significant changes in major organs | normal morphology and no obvious changes | no pathological changes such as cellular swelling and necrosis | no congestion and inflammatory cell infiltration
polymyxin B [PMB, reference compound] |  |  |  |  | can only inhibit the release of TNF-α and IL-6 induced by LPS | inhibit the release of TNF-α and IL-6 |  |  |  |  |  |  | 
